From patent US20250042856A1, “CRYSTALLINE FORM OF (R)-2-(TERT-BUTYLAMINO)-1-(5-FLUOROPYRIDIN-3-YL)-ETHAN-1-OL HEMI-TARTRATE SALT FOR THE TREATMENT OF HYPERGLYCEMIA AND DIABETES 2” (ATROGI AB, priority 2021, published 2025)

Experiment: TGMS mass loss due to water after exposure to stress conditions
Type: physicochemical
Conditions: between 6° and 160° C., after 2 days at 40° C. and 75% RH

CC(C)(C)NC[C@H](O)c1cncc(F)c1.O=C(O)C(=O)O [Comparative Salt Example 9]
mass loss (TGMS): no significant mass loss
